Patent publication US7863337B2, “Use of triacontanol in preparation of medicaments for treatment of cancers” (priority 2006, dated 2011)

Legend:
[1] = Effect to the thymus index and spleen index of murine by gavaging a triacontanol oil agent; type: in vivo; conditions: tumor-bearing mice
murine hepatoma H22 [2] = experiment: Curative effect test against murine hepatoma H22 (inoculated under the armpit) by gavaging a triacontanol oil agent; type: in vivo, mice
Protocol: (§1) Experiment method: […] of the tumor models of murine hepatoma H22, intestinal cancer C26 and Lewis lung cancer by hypodermic inoculating in the murine in vivo
(§2) A cancer cell suspension is prepared from the tumor source by homogenate technique, and then is inoculated subcutaneously under the armpit. After 24 hours, medication is administrated according to a predesigned scheme, and finally, an inhibition rate statistic against the tumor is obtained by comparing with a negative control group.

murine hepatoma H22 [3] = experiment: Curative effect test against murine hepatoma H22 by gavaging a thixotropic oil suspension of triacontanol; type: in vivo, mice
Protocol: as §1, §2

Lewis lung cancer = experiment: Curative effect test against murine Lewis lung cancer (hypodermically inoculated) by intravenous administration of a triacontanol emulsion; type: in vivo, mice; conditions: 7 mg/kg/d
Protocol: as §1, §2

intestinal cancer C26 = experiment: Curative effect test against murine intestinal cancer C26 (hypodermically inoculated) by gavaging a 352B oil agent; type: in vivo, mice; conditions: 7 mg/kg/d
Protocol: as §1, §2

[4] = 100 mg/kg (middle dosage), gavage
[5] = 150 mg/kg (high dosage), gavage
[6] = ipx2, vs negative control group

SMILES: CCCCCCCCCCCCCCCCCCCCCCCCCCCCCCO [352B, triacontanol]
- Spleen index (mg/10 g body weight) ([1]; 50 mg/kg (low dosage), gavage): 67.1 ± 13.7 mg/10 g body weight
- Thymus index (mg/10 g body weight) ([1]; 50 mg/kg (low dosage), gavage): 45 ± 6.72 mg/10 g body weight
- Weight of spleen ([1]; 50 mg/kg (low dosage), gavage): 153.52 ± 35.62 mg
- Weight of thymus ([1]; 50 mg/kg (low dosage), gavage): 102.14 ± 15.90 mg
- Spleen index (mg/10 g body weight) [1, 4]: 62.1 ± 17.5 mg/10 g body weight
- Thymus index (mg/10 g body weight) [1, 4]: 38.7 ± 8.08 mg/10 g body weight
- Weight of spleen [1, 4]: 139.98 ± 41.62 mg
- Weight of thymus [1, 4]: 86.87 ± 16.44 mg
- Spleen index (mg/10 g body weight) [1, 5]: 65.7 ± 12.3 mg/10 g body weight
- Thymus index (mg/10 g body weight) [1, 5]: 37.7 ± 6.73 mg/10 g body weight
- Weight of spleen [1, 5]: 151.26 ± 32.16 mg
- Weight of thymus [1, 5]: 86.86 ± 16.14 mg
- effect to the important immune organ (thymus and spleen) ([1]; summary in words): hasn't obvious effect to the important immune organ
- Weight (g) After administration (murine hepatoma H22 [2]; 50 mg/kg (low dosage), gavage): 23.51 ± 1.99 g
- Weight of the tumor (murine hepatoma H22 [2]; 50 mg/kg (low dosage), gavage): 0.72 ± 0.38 g
- Inhibition rate (%) (murine hepatoma H22 [2]; 50 mg/kg (low dosage), gavage, compared with the menstruum control group): 48.13%
- Weight (g) After administration (murine hepatoma H22 [2]; [4]): 23.20 ± 2.86 g
- Weight of the tumor (murine hepatoma H22 [2]; [4]): 0.57 ± 0.28 g
- Inhibition rate (%) (murine hepatoma H22 [2]; 100 mg/kg (middle dosage), gavage, compared with the menstruum control group): 58.95%
- Weight (g) After administration (murine hepatoma H22 [2]; [5]): 23.52 ± 2.36 g
- Weight of the tumor (murine hepatoma H22 [2]; [5]): 0.49 ± 0.25 g
- Inhibition rate (%) (murine hepatoma H22 [2]; 150 mg/kg (high dosage), gavage, compared with the menstruum control group): 64.59%
- antitumor effect (summary in words) (murine hepatoma H22 [3]; summary of the above tests (H22, Lewis lung cancer, C26)): prominent antitumor effect

SMILES: N.N.[Cl][Pt][Cl] [DDP]
- Spleen index (mg/10 g body weight) ([1]; 0.001 mg/kg): 46 ± 8.18 mg/10 g body weight
- Thymus index (mg/10 g body weight) ([1]; 0.001 mg/kg): 30.7 ± 8.06 mg/10 g body weight
- Weight of spleen ([1]; 0.001 mg/kg): 88.90 ± 27.79 mg
- Weight of thymus ([1]; 0.001 mg/kg): 59.61 ± 22.45 mg
- Weight of the tumor (murine hepatoma H22 [2]; 0.001 mg/kg): 0.31 ± 0.19 g
- Inhibition rate (%) (murine hepatoma H22 [2]; 0.001 mg/kg, compared with the NS control group): 79.76%
- Weight of the animal (g) at last (Lewis lung cancer; ipx2): 19.2/20.9 g
- Weight of the tumor (g) X ± SD (Lewis lung cancer; ipx2): 0.278 ± 0.14 g
- Inhibition rate (%) (Lewis lung cancer; [6]): 89.00%
- Weight of the animal (g) at last (intestinal cancer C26; ipx2): 19.1/24.1 g
- Weight of the tumor (g) X ± SD (intestinal cancer C26; ipx2): 0.346 ± 0.13 g
- Inhibition rate (%) (intestinal cancer C26; [6]): 86.99%
- Weight of the animal (g) at last (murine hepatoma H22 [3]; 7 mg/kg/d, igx2): 21.4/25.4 g
- Weight of the tumor (g) X ± SD (murine hepatoma H22 [3]; 7 mg/kg/d, igx2): 1.269 ± 0.13 g
- Inhibition rate (%) (murine hepatoma H22 [3]; 7 mg/kg/d, igx2, vs negative control group): 91.0%
